ChEMBL document CHEMBL1201862, “PubChem BioAssay data set” (2004)
Active and inactive are the calls of the source.

What was measured:
[1] = target: SWI/SNF-related matrix-associated actin-dependent regulator of chromatin subfamily A member 2 (Homo sapiens, UniProt P51531); assay: Luminescence-based cell-based high throughput dose response assay to identify activators of the function of SWI/SNF related, matrix associated, actin dependent regulator of chromatin, subfamily a, member 2 (SMARCA2, BRM).; assay type: functional
[2] = Counterscreen for activators of the function of SWI/SNF related, matrix associated, actin dependent regulator of chromatin, subfamily a, member 2 (SMARCA2, BRM): Luminescence-based cell-based high throughput dose response assay to identify non-selective compounds using the VP16 reporter assay.; assay type: functional
[3] = target: T1, Aminopeptidase N (Plasmodium falciparum FcB1/Columbia, UniProt O96935); assay: P. falciparum M1AAP inhibitors, biochemical, fluorogenic H-Leu-NHMec substrate, 1536-well (AID 1445); set-up: species or system Plasmodium falciparum 3D7, 3D7
T1 sequence (O96935 whole entry): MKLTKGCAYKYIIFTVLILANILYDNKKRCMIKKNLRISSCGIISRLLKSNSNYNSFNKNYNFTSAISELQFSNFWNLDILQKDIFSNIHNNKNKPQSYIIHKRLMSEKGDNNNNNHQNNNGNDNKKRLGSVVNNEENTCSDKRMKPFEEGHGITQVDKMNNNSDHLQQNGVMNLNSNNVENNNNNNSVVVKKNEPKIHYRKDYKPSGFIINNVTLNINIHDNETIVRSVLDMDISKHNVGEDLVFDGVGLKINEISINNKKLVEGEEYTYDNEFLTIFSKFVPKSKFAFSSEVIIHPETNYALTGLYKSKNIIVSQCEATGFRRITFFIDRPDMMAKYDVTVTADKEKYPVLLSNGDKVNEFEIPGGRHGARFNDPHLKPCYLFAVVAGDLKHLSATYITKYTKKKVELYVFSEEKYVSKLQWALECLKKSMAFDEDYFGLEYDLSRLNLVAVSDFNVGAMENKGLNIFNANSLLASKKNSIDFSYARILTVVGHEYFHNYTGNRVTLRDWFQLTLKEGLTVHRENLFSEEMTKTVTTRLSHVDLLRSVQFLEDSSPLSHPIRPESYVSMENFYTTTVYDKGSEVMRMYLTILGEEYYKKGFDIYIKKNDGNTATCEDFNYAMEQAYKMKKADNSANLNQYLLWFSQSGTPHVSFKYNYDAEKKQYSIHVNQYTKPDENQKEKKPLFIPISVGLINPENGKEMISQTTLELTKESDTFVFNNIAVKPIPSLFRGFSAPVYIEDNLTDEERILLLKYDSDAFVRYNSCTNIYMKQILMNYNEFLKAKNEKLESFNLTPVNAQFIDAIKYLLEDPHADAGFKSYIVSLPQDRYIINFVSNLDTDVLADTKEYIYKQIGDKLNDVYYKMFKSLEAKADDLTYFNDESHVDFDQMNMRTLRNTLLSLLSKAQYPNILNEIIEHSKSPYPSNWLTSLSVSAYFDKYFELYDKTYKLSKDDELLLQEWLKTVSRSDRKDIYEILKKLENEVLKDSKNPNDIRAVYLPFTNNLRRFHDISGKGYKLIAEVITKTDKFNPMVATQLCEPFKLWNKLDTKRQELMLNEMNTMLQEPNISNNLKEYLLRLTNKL

[4] = target: Genome polyprotein (dengue virus type 2, UniProt P29990); assay: Dengue-2 NS5 methyltransferase inhibitors, primary screen, biochemical, confirmation dose response (AID 588689); assay type: functional
[5] = target: T2, Corticotropin-releasing factor receptor 2/Corticotropin-releasing factor-binding protein (Homo sapiens, UniProt P24387+Q13324); assay: Dose Response confirmation of uHTS hits for small molecule antagonists of the CRF-binding protein and CRF-R2 receptor complex.; assay type: functional; conditions: read-out: IC50_Mean
T2 sequence (Q13324 whole entry): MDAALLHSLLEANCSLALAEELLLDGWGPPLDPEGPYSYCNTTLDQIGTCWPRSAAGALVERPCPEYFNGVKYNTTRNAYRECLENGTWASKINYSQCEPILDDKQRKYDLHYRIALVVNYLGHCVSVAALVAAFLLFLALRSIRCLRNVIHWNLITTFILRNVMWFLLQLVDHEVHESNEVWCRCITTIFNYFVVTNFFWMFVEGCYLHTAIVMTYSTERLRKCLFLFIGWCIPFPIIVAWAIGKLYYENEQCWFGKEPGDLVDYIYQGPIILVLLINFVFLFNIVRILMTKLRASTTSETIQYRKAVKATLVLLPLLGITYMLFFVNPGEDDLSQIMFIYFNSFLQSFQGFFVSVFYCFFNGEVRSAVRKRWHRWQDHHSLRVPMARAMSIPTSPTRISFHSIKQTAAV
T2 sequence (P24387 whole entry): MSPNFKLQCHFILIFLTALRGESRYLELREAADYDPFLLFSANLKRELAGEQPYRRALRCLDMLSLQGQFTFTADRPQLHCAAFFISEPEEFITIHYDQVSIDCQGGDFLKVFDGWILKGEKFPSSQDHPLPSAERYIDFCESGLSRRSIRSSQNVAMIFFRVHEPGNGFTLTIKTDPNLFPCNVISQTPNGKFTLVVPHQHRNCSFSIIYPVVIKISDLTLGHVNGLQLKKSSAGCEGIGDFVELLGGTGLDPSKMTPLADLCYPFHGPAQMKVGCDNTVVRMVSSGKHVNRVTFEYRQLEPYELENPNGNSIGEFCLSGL

[6] = target: T2, Corticotropin-releasing factor receptor 2/Corticotropin-releasing factor-binding protein; assay: activators of CRF receptor 2 with binding protein – uHTS hits, confirmation (AID 602473); assay type: functional; conditions: read-out: EC50_Mean
[7] = CRF-BP/CRF-R2 complex antagonists, dose response, cell-based, uHTS hits, 384-well (AID 651639); assay type: functional, Homo sapiens; conditions: read-out: IC50_Mean
[8] = target: T3, Long-chain-fatty-acid--AMP ligase FadD28 (Mycobacterium tuberculosis, UniProt P9WQ59); assay: Fluorescence polarization aasay to screen for inhibitors that compete for the binding of FadD28 to a bisubstrate Measured in Biochemical System Using Plate Reader - 2147-01_Inhibitor_Dose_CherryPick_Activity.; assay type: functional, Mycobacterium tuberculosis H37Rv
T3 sequence (P9WQ59 whole entry): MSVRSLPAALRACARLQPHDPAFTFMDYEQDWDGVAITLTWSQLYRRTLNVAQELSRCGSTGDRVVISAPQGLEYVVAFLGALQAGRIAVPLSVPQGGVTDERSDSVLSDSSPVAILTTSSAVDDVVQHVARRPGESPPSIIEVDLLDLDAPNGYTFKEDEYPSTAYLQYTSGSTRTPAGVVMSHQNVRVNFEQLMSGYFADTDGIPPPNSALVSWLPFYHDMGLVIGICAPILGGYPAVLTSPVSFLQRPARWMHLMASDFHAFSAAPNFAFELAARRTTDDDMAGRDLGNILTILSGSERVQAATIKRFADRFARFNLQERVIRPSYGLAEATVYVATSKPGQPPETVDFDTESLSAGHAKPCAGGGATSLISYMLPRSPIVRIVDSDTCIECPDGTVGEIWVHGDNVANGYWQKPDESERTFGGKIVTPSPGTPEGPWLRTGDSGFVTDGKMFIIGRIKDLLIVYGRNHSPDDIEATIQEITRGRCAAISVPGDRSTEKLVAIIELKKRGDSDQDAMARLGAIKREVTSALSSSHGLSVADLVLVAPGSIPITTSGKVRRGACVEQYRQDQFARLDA

[9] = Counterscreen for […] of the human trace amine associated receptor 1 (TAAR1): Fluorescence-based cell-based high throughput dose response assay to identify nonselective Ga16 agonists.; assay type: functional
[10] = target: T4, Trace amine-associated receptor 1 (Homo sapiens, UniProt Q96RJ0); assay: Fluorescence-based cell-based high throughput dose response assay to identify antagonists of the human trace amine associated receptor 1 (TAAR1).; assay type: functional
T4 sequence (Q96RJ0 whole entry): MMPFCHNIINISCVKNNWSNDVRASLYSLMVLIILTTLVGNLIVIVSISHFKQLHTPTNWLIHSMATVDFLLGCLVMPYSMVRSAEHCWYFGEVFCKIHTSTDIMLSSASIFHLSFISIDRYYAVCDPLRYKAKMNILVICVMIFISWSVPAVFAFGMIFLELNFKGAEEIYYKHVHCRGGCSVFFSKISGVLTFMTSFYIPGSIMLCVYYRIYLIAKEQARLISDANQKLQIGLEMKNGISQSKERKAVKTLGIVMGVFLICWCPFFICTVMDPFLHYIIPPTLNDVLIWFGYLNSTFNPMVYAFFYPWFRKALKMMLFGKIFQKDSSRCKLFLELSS

[11] = Counterscreen for antagonists of the human trace amine associated receptor 1 (hTAAR1): Fluorescence-based cell-based high throughput dose response assay to identify nonselective Ga16 antagonists.; assay type: functional
[12] = target: T4, Trace amine-associated receptor 1; assay: Counterscreen for antagonists of the human trace amine associated receptor 1 (hTAAR1): Fluorescence-based cell-based high throughput dose response assay to identify TAAR1 Agonists.; assay type: functional
[13] = cells; assay type: functional, cell-based
[14] = target: T4, Trace amine-associated receptor 1; assay: Fluorescence-based cell-based high throughput dose response assay to identify agonists of the human trace amine associated receptor 1 (TAAR1).; assay type: functional
[15] = target: T4, Trace amine-associated receptor 1; assay: Counterscreen for agonists of the human trace amine associated receptor 1 (hTAAR1): Fluorescence-based cell-based high throughput dose response assay to identify hTAAR1 agonist that also desensitize TAAR1 receptor response.; assay type: functional
[16] = cells; assay type: functional, cell-based; remark: listed apart in the source
[17] = target: Mu-type opioid receptor (Homo sapiens, UniProt P35372); assay type: functional, cell-based;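 further: U2OS cells with beta-arrestin recruitment to OPRM1 by beta-gal complementation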
[18] = target: 5-hydroxytryptamine receptor 2A (Mus musculus, UniProt P35363); assay type: functional, cell-based;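 further: CHO-K1 cells with tagged receptor and beta-arrestin; agonist potency measured as compound-induced activation of the receptor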
5-hydroxytryptamine receptor 2A, sequence (P35363 whole entry): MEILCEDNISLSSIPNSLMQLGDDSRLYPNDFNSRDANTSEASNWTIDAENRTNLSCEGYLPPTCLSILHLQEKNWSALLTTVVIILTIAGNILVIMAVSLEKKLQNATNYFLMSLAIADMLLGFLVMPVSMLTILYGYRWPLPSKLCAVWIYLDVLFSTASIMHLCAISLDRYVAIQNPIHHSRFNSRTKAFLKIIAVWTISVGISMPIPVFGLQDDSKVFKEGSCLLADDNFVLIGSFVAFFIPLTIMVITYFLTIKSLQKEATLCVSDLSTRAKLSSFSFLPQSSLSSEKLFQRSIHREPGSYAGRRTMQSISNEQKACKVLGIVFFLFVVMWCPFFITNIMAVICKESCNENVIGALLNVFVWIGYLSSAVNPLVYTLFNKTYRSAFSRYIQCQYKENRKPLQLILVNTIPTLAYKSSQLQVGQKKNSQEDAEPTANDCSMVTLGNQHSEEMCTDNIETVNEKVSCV

Genome polyprotein, sequence (P29990 2492-3391 limits assumed): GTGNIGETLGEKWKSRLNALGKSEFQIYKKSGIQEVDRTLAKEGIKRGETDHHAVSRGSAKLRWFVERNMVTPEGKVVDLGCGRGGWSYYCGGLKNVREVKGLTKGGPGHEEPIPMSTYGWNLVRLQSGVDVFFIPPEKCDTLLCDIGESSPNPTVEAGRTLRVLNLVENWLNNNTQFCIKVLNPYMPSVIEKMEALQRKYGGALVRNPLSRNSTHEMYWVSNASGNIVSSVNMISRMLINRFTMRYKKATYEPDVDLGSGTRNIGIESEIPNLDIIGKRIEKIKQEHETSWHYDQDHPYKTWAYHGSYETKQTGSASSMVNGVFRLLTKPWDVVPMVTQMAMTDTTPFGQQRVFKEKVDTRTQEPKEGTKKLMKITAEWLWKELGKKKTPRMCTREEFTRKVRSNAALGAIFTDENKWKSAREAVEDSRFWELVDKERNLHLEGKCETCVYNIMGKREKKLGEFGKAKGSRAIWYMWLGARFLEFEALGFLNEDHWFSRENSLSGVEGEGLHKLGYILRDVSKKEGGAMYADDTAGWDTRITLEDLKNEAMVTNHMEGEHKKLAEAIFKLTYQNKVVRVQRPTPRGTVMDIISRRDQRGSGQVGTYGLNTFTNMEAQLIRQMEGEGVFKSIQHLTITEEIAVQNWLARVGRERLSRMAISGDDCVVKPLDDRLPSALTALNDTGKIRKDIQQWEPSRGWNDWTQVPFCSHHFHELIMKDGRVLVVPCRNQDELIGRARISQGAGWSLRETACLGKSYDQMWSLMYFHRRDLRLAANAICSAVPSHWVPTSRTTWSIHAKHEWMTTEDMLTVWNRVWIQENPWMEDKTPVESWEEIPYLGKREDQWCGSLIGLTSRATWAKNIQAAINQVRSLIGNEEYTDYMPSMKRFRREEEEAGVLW
Mu-type opioid receptor, sequence (P35372 whole entry): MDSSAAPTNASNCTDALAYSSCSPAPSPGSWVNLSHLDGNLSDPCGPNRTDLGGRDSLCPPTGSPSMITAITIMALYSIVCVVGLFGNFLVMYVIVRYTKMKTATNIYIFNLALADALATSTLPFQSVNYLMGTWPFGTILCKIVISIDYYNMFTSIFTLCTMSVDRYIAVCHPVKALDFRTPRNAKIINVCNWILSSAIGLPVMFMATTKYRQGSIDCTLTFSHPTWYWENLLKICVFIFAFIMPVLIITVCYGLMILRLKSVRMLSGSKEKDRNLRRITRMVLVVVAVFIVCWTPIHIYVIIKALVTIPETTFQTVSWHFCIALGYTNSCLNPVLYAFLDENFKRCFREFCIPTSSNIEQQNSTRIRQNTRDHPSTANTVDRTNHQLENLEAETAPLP
SWI/SNF-related matrix-associated actin-dependent regulator of chromatin subfamily A member 2, sequence (P51531 whole entry): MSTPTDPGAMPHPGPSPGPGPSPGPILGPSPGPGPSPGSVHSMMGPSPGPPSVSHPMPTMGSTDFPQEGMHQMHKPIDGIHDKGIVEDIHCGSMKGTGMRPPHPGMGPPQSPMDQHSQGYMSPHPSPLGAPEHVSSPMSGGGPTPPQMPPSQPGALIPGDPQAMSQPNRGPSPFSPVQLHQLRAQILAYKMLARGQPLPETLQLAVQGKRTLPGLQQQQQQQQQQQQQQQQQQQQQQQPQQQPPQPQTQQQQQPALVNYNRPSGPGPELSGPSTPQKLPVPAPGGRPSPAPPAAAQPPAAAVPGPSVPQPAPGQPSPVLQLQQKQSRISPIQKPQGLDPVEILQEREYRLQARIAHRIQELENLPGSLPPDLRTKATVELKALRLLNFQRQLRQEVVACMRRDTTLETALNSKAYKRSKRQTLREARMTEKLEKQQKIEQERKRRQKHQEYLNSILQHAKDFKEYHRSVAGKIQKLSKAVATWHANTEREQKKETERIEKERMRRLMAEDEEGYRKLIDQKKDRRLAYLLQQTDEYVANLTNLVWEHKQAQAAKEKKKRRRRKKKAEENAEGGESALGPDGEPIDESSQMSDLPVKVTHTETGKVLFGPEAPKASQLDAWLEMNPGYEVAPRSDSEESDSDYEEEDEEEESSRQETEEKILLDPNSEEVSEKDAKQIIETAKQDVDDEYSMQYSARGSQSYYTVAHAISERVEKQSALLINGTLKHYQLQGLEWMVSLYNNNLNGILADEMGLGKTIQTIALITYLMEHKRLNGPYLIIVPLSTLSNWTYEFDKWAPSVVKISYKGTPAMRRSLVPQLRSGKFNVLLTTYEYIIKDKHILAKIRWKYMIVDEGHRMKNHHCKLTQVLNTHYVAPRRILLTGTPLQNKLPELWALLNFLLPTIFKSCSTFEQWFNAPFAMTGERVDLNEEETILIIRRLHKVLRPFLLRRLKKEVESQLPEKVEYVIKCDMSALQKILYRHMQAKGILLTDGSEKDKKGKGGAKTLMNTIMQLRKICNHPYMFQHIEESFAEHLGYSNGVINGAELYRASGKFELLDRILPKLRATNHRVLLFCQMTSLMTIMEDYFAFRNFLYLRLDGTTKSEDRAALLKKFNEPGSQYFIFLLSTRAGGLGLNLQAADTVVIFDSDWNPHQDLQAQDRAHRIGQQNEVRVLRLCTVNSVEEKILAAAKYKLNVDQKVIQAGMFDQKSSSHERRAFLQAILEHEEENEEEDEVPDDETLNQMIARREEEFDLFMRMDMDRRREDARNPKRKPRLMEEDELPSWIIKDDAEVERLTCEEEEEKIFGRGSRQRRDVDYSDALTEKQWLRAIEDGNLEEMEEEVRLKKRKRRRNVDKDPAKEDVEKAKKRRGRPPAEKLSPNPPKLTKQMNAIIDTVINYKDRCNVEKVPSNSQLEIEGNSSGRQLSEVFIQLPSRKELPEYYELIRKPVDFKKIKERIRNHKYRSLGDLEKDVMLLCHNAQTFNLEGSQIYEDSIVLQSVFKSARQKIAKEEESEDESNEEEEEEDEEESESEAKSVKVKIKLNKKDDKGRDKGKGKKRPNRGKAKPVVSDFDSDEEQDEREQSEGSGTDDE

**Q.** Which EC50 [1] does the source give for `O=C(COC(=O)c1nc(Cl)c(Cl)c(Cl)c1Cl)NCc1ccccc1` here?
**A.** The EC50 was > 91.1 µM (inactive).

**Q.** And the EC50 [2]?
**A.** Its EC50 is > 91.1 µM (inactive).

**Q.** With `C=CCOc1ccc(/C=C2\SC(=S)N(C(C(=O)O)c3ccccc3)C2=O)cc1` (stereo unspecified) as the compound, how does the IC50 [3] read?
**A.** Its IC50 is 33.8 µM (active).

**Q.** What about the IC50 [4] of the same compound?
**A.** Its IC50 is 40.2 µM (active).

**Q.** What about the IC50 [5] of the same compound?
**A.** The IC50 was 4.06 µM (active).

**Q.** And the EC50 [6]?
**A.** Its EC50 is 33.2 µM (active).

**Q.** And the IC50 [7]?
**A.** Its IC50 is 14.7 µM (active).

**Q.** What about the AC50 [8] of the same compound?
**A.** The AC50 was 4.48 µM (active).

**Q.** With `O=C1NC(=S)S/C1=C\c1cccc([N+](=O)[O-])c1` as the compound, how does the IC50 [5] read?
**A.** The IC50 was 16.7 µM (active).

**Q.** And the EC50 [6]?
**A.** The EC50 was 10.8 µM (active).

**Q.** And the IC50 [7]?
**A.** Its IC50 is > 20 µM (inactive).

**Q.** For `COc1ccc(-c2c(C#Cc3ccsc3)c3cc(-c4ccc(C(N)=O)cc4)ccc3n2C)cc1`, which EC50 [9] is on record?
**A.** Its EC50 is > 29.9 µM (inactive).

**Q.** And the IC50 [10]?
**A.** Its IC50 is 233 nM (active).

**Q.** What about the IC50 [11] of the same compound?
**A.** The IC50 was > 29.9 µM (inactive).

**Q.** What about the EC50 [12] of the same compound?
**A.** The EC50 was > 29.9 µM (inactive).

**Q.** What does the source list for `CCOC(=O)[C@]12CCC=C1N(Cc1ccc3c(c1)OCO3)C(=O)[C@H](CC(=O)NCCc1ccccc1OC)C2`?
**A.** IC50 [13]: > 29.9 µM (inactive); EC50 [14]: 7.51 µM (active); IC50 [15]: 6.46 µM (active); EC50 [16]: > 29.9 µM (inactive)

**Q.** With `COc1cccc(-c2nc(CN3CCN(C(=O)c4ccco4)CC3)c(C)o2)c1OC` as the compound, how does the EC50 [17] read?
**A.** Its EC50 is 92.5 µM (inactive).

**Q.** And the EC50 [18]?
**A.** Its EC50 is 20 µM (inactive).
